The values that follow come from PMC7985297 (Communications Biology, 2021).

Several values for one entry are separate records, joined by “and”; a condition that tells them apart may be missing. Equal entries are not always repeated.

For series [1] the following is noted: led to excessive pill burden; cited from earlier work.
For the next series, the system named is DU145 cells. In words: BrdU incorporation assay, DU145. Conditions: − R1881; ENZ 10 µM, EPI-002 25 µM, JUG 20 µM, ATRA 10 µM. Format: cell-based, human. On the procedure: (§1) Cells were treated with the inhibitors and stimulated with 1 nM of R1881 (+) or vehicle (−) for 24 to 72 h. Each data point represents the average from an independent experiment where the error bars show the mean ± s.e.m.
(§2) BrdU incorporation was determined with the colorimetric BrdU ELISA kit (Roche Diagnostics), according to the manufacturer’s protocol. In brief, cells were seeded in 96-well plates (LNCaP, 5000/well; LN95, 8000/well; PC-3 and DU145, 4000/wells) in media with reduced serum (0.5–1%). On the following day, cells were pre-treated with test compounds for 1 h and then incubated with 0.1 nM of R1881. After the indicated incubation times, cells were labeled with 10 μM of BrdU for 2 h and then fixed for the assay.
Background: Incorporation of labelled thymidine or its analogues reports DNA synthesis.

The test system of the next series is PC-3 cells. In words: BrdU incorporation assay, PC-3. Format: cell-based, human. Conditions: − R1881; ENZ 10 µM, EPI-002 25 µM, JUG 20 µM, ATRA 10 µM. As for the experimental part:
as §1, §2

A further series has as its target T1, full-length AR (Homo sapiens, UniProt P10275, T878A).
T1 construct: Transcriptional activity of full-length AR was assessed in LNCaP cells; endogenous in cells; host or cells: LNCaP
T1 sequence (P10275 1-920 T878A): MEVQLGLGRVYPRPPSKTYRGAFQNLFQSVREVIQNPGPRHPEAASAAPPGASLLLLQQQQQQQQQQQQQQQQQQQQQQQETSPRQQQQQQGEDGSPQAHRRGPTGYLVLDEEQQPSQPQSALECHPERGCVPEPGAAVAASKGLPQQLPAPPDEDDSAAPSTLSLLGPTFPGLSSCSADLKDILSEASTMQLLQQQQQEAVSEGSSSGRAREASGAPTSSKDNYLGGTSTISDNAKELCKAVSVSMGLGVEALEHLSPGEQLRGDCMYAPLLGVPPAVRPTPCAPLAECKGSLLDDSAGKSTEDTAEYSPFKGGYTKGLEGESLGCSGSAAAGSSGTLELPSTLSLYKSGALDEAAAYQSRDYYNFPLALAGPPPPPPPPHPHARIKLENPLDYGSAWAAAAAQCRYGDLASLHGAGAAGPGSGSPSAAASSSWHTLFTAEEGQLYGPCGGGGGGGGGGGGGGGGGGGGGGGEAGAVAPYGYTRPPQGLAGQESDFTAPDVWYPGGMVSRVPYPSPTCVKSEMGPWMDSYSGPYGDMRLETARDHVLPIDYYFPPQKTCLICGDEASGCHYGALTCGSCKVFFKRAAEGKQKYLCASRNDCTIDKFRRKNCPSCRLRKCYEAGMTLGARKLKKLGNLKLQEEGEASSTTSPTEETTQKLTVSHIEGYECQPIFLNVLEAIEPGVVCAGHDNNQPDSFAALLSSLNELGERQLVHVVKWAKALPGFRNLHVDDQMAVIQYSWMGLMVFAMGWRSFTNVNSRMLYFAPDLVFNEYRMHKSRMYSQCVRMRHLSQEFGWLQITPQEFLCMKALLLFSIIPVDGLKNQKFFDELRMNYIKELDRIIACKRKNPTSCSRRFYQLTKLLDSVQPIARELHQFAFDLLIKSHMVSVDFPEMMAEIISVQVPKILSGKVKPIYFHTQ
Put plainly: PSA(6.1 kb)-luciferase AR-driven reporter assay in LNCaP cells. Format: cell-based. Conditions: for fractional response (Fig. 5g): monotherapy or with 5 µM ATRA.

Series [2] relates to LN95 cells. Put plainly: BrdU incorporation assay, LN95. Type of series: cell-based, human. Conditions: ENZ 10 µM, EPI-002 25 µM, JUG 20 µM, ATRA 10 µM. As for the experimental part:
as §1, §2

Another series addresses AR-V7 (Homo sapiens, UniProt P10275). In words: Transcriptional reporter assay for AR-V7 (V7BS3-luciferase) in LNCaP cells. Conditions: enzalutamide 10 µM, EPI-002 25 µM, juglone 20 µM, ATRA 10 µM, 24 h. On the technique in general: In a reporter assay the amount or activity of a reporter protein is the signal.
Series [3] relates to LN95 cells. In words: Senescence-associated β-galactosidase staining, LN95. Conditions: LN95, ATRA 10 μM, EPI-002 25 μM, 3 days.
Experimental: β-galactosidase activity at suboptimal pH (6.0) was used as a marker to detect cellular senescence[42]. Cells were seeded in four-well chamber slides at a density of 8000-10,000 cells. […] Three days later, the media was removed and cells were fixed with 2% formaldehyde/0.2% glutaraldehyde for 10 min at room temperature, washed with PBS, and then incubated with freshly prepared β-Gal staining solution (Cell Signaling) titrated to pH 6.0. Staining was optimal after incubating with the β-Gal solution at 37 °C for 16–18 h. After staining, the slides were washed twice with PBS, once with absolute methanol, and then mounted with 50% glycerol/PBS. The percentage of β-galactosidase-positive cells were counted with ImageJ using the Cell Counter plugin. A total of nine images containing 100–300 cells were scored to determine the percentages of positive cells.
The target in series [4] is T2, human AR NTD (AR1–558) fused to Gal4DBD (Gal4-ARN) (Homo sapiens, UniProt P10275).
T2 construct: construct encoding the human AR1–558 of the NTD fused to a Gal4DBD (Gal4-ARN); expressed in transfected cells; host or cells: LNCaP
T2 sequence (P10275 1-558): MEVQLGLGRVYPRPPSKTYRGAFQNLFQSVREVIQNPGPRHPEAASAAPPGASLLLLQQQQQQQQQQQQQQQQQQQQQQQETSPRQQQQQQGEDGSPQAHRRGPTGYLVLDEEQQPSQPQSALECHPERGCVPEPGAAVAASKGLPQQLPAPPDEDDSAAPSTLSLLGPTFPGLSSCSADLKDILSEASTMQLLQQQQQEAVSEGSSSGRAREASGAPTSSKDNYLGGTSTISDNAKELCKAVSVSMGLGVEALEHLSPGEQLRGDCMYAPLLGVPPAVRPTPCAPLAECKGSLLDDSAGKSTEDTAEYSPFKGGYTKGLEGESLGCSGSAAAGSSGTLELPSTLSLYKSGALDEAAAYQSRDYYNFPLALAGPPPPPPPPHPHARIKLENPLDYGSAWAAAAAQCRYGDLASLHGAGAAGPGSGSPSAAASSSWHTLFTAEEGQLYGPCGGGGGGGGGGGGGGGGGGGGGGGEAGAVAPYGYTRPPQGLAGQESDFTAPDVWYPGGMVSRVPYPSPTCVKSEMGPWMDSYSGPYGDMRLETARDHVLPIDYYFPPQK
In words: AR NTD transactivation assay (Gal4-ARN) in LNCaP cells. Type of series: cell-based. Conditions: EPI-002 25 μM, juglone 20 μM, ATRA 10 μM, 24 h. From the text: The remaining putative Pin1-binding sites are within the intrinsically disordered AR NTD that contains transcription activation units, Tau-1 and Tau-5, to mediate androgen-dependent and androgen-independent transactivation, respectively[5],[30]. The loss of AR-LBD shifts the location of transcriptional activity from Tau-1 with androgen, to Tau-5 in the absence of LBD[30].
Error bars show the mean ± s.e.m. *P < 0.05, **P < 0.01, ***P < 0.001; ns not significant.

The subject of series [5] is LN95 cells. Put plainly: Colony formation of LN95 cells. Format: cell-based, human. Conditions: LN95, ATRA 5 or 10 µM, EPI-002 25 µM, treated 24 hours then re-plated. On the procedure:
page 5: Supplementary Figure 5 a b […] (a) Representative images of colonies from LN95 cells after […] EPI-002. After treating with compounds for 24 hours, the media was removed, and 500 -1,000 cells were re-plated in 6-well plates. Colonies were fixed with 4% paraformaldehyde, stained with a 0.1% crystal violet solution, and then imaged. […]

Chain of AR-V7 (P10275 1-644 isoform P10275-3): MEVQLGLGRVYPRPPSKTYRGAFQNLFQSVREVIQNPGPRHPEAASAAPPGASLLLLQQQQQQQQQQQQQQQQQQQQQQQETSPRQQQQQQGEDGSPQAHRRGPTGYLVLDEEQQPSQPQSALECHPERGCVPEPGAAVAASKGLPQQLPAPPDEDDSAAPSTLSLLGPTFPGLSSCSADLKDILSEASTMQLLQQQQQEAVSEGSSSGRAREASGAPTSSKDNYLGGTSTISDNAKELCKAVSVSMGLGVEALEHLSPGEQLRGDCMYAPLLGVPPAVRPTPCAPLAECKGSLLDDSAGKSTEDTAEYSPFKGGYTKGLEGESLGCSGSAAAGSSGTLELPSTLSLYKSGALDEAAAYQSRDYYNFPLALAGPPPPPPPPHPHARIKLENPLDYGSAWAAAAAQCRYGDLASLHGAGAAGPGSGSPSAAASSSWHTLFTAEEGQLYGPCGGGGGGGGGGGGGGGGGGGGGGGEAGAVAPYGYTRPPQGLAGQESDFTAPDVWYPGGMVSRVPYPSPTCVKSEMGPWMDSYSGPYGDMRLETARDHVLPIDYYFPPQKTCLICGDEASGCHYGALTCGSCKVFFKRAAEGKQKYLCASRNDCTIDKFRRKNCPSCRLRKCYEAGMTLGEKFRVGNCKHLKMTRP

On to `CC(C)(c1ccc(OC[C@H](O)CO)cc1)c1ccc(OC[C@H](O)CCl)cc1` [ralaniten], for which the “pharmacokinetics in clinical testing” value in [1] is listed as “poor pharmacokinetics”. Also, in the series with DU145 cells, the “BrdU incorporation, DU145 (Fig. 4d)” value is 0.692 and 0.859 and 0.62. For the same compound, the “BrdU incorporation, PC-3 (Fig. 4c)” value with PC-3 cells was 0.683 and 1.048 and 0.96 and 1.348. In addition, at full-length AR (40 µM of ralaniten), the “inhibition of reporter activity at highest concentration” value is ~ 98%. In addition, the “fractional response (Fig. 5g)” value was 0.8041 and 0.7145 and 0.7078 and 0.8391 at full-length AR (EPI-002 20 μM); 0.9915 and 0.9757 and 0.9847 and 0.9439 at full-length AR (EPI-002 40 μM). The “effect on proliferation of LN95 cells” value with LN95 cells [2] was “attenuated the proliferation of LN95 cells”. Besides, the “effect on AR-V7-induced V7BS3-luciferase reporter activity” value on AR-V7 is given as “decreased AR-V7-induced reporter activity”. In the series on LN95 cells [3], the “SA β-gal-positive cells” value was 31%. The “effect on IL-6-induced transactivation of AR NTD (Gal4-ARN)” value in series [4] (IL-6 50 ng/mL) is “both blocked”. In addition, the “effect on forskolin-induced transactivation of AR NTD (Gal4-ARN)” value in series [4] (forskolin 25 μM) was “both blocked”. Besides, the “effect on colony formation” value in the series on LN95 cells [5] is “significantly reduced the number of colonies”.
